Test results: ChEMBL document CHEMBL4402559, “Structure-Based Design and Pharmacokinetic Optimization of Covalent Allosteric Inhibitors of the Mutant GTPase KRASG12C” (J Med Chem, 2020)
One block for each compound: values may come before it. The source made the active and inactive calls. No cut-off for these calls is given here.

Legend:
[1] = Distribution coefficient, log D of compound at pH 7.4; type: physicochemical; settings: octanol/water, read-out: logD
[2] = Intrinsic clearance in rat hepatocytes assessed per 10^-6 cells; type: ADME, cell-based, Hepatocyte
[3] = Intrinsic clearance in human liver microsomes; type: ADME, Microsome; settings: for microsomal CLint: liver microsomes, read-out: CLH
[4] = Efflux ratio of apparent permeability in human Caco2 cells at 10 uM at pH 7.4; type: ADME, cell-based; settings: Caco-2, pH 7.4
[5] = GSH reactivity in PBS buffer assessed as half life at pH 7.4 and 37 degree C in presence of glutathione; type: physicochemical; settings: PBS buffer with glutathione
[6] = Clearance in Han Wistar rat at 2 umol/kg, po or 1 umol/kg, iv; settings: in vivo
[7] = Volume of distribution at steady state in Han Wistar rat at 2 umol/kg, po or 1 umol/kg, iv; settings: in vivo
in vivo = settings: Han Wistar, rat, po, 2 umol/kg
GTPase KRas = GTPase KRas (Homo sapiens, UniProt P01116, G12C); assay: Inhibition of GDP bound biotinylated human C-terminal Avi/His6-tagged KRAS G12C mutant (1 to 166 residues) expressed in Escherichia coli BL21 (DE3) assessed as reduction in SOS1-mediated GDP/GTP nucleotide exchange by preventing recognition between KRAS G12C mutant and Ras binding domain of N-terminal Avi/GST-tagged Raf-1 (51 to 149 residues) preincubated for 4 hrs followed by SOS1 and GTPgammaS addition by FRET assay
Lu-99 cell line [8] = assay: Antiproliferative activity against human LU99 cells expressing KRAS G12C mutant assessed as cell growth inhibition cultured in soft agar medium containing compounds and supplemented with fresh medium for every 7 days by 3D soft agar proliferation assay; type: functional, cell-based
Mus musculus = assay: Decrease in DUSP6 mRNA level in tumor of athymic NU-Fox1nu mouse xenografted with human MIAPaca2 cells at 10 to 100 mg/kg, po qd measured at 3 to 24 hrs post-treatment by qRT-PCR analysis; type: functional, organism-based
[9] = test system: GTPase KRas (Homo sapiens), P01116 [G12C]; assay: Binding affinity to KRAS G12C mutant in human […] cell lysate assessed as trypsin-mediated biotinylated cysteine residues digestion by measuring reduction in protein level at 4 uM prelabeled with iodoacetamide desthiobiotin followed by compound treatment measured after 4 hrs by MS analysis relative to control; type: subcellular
Lu-99 cell line [10] = assay: Antiproliferative activity against human LU99 cells expressing KRAS G12C mutant assessed as cell growth inhibition measured after 5 days by sytox green dye staining based 2D proliferation assay; type: functional
SW1573 [11] = assay: Antiproliferative activity against human SW1573 cells expressing KRAS G12C mutant assessed as cell growth inhibition cultured in soft agar medium containing compounds and supplemented with fresh medium for every 7 days by 3D soft agar proliferation assay; type: functional, cell-based
SW1573 [12] = assay: Antiproliferative activity against human SW1573 cells harboring KRAS G12C mutant assessed as cell growth inhibition measured after 5 days by sytox green dye staining based 2D proliferation assay; type: functional
[13] = test system: GTPase KRas (Homo sapiens), P01116 [G12C]; assay: Inhibition of KRAS G12C mutant in human H358 cells assessed as […] at 1 uM measured after 6 hrs by TQ-UPLC/MS analysis relative to control; type: cell-based
[14] = test system: GTPase KRas (Homo sapiens), P01116 [G12C]; assay: Inhibition of KRAS G12C mutant expressed in human HCC44 cells assessed as […] at 1 uM measured after 6 hrs by TQ-UPLC/MS analysis relative to control; type: cell-based
[15] = test system: GTPase KRas (Homo sapiens), P01116 [G12C]; assay: Inhibition of KRAS G12C mutant expressed in human H1792 cells assessed as […] at 1 uM measured after 6 hrs by TQ-UPLC/MS analysis relative to control; type: cell-based
[16] = test system: GTPase KRas (Homo sapiens), P01116 [G12C]; assay: Inhibition of KRAS G12C mutant expressed in human H23 cells assessed as […] at 1 uM measured after 6 hrs by TQ-UPLC/MS analysis relative to control; type: cell-based
[17] = test system: GTPase KRas (Homo sapiens), P01116 [G12C]; assay: Inhibition of KRAS G12C mutant expressed in human Calu1 cells assessed as […] at 1 uM measured after 6 hrs by TQ-UPLC/MS analysis relative to control; type: cell-based
[18] = test system: GTPase KRas (Homo sapiens), P01116 [G12C]; assay: Inhibition of KRAS G12C mutant expressed in human HOP62 cells assessed as […] at 1 uM measured after 6 hrs by TQ-UPLC/MS analysis relative to control; type: cell-based
[19] = test system: GTPase KRas (Homo sapiens), P01116 [G12C]; assay: Inhibition of KRAS G12C mutant expressed in human LU65 cells assessed as […] at 1 uM measured after 6 hrs by TQ-UPLC/MS analysis relative to control; type: cell-based
[20] = test system: GTPase KRas (Homo sapiens), P01116 [G12C]; assay: Inhibition of KRAS G12C mutant expressed in human H2122 cells assessed as […] at 1 uM measured after 6 hrs by TQ-UPLC/MS analysis relative to control; type: cell-based
[21] = test system: GTPase KRas (Homo sapiens), P01116 [G12C]; assay: Inhibition of KRAS G12C mutant expressed in human H1373 cells assessed as […] at 1 uM measured after 6 hrs by TQ-UPLC/MS analysis relative to control; type: cell-based
[22] = test system: GTPase KRas (Homo sapiens), P01116 [G12C]; assay: Inhibition of KRAS G12C mutant expressed in human LU99 cells assessed as […] at 1 uM measured after 6 hrs by TQ-UPLC/MS analysis relative to control; type: cell-based
[23] = test system: GTPase KRas (Homo sapiens), P01116 [G12C]; assay: Inhibition of KRAS G12C mutant expressed in human SW1573 cells assessed as […] at 1 uM measured after 6 hrs by TQ-UPLC/MS analysis relative to control; type: cell-based
[24] = biological target: GTPase KRas (Homo sapiens) (UniProt P01116); assay: Inhibition of wild type KRAS expressed in human PC9 cells assessed as […] at 1 uM measured after 6 hrs by TQ-UPLC/MS analysis; type: cell-based
[25] = test system: GTPase KRas (Homo sapiens), P01116 [UNDEFINED MUTATION]; assay: Inhibition of KRas mutant expressed in human A549 cells assessed as […] at 1 uM measured after 6 hrs by TQ-UPLC/MS analysis; type: cell-based
[26] = test system: GTPase KRas (Homo sapiens), P01116 [UNDEFINED MUTATION]; assay: Inhibition of KRas mutant expressed in human H2291 cells assessed as […] at 1 uM measured after 6 hrs by TQ-UPLC/MS analysis; type: cell-based
MIA PaCa-2 = assay: Antitumor activity against human MIAPaCa2 cells harboring KRAS G12C mutant xenografted in orally dosed athymic NU-Fox1nu nude mouse assessed as tumor regression administered daily for 2 weeks and further treated for 3 weeks; type: functional, organism-based

Structure (SMILES): C=CC(=O)N1CCN2c3c(cnc4c(OC)c(-c5c(O)cccc5F)c(Cl)cc34)OC[C@H]2C1 (single isomer, unassigned; atropisomer 2)
IC50 (GTPase KRas): 70 nM
logD [1]: 3
hepatocyte intrinsic clearance [2]: 56 µL/min
microsomal CLint [3]: 40 µL/min/mg

Structure (SMILES): C=CC(=O)N1CCN(c2ncnc3cc(-c4c(C)ccc5[nH]ncc45)c(Cl)cc23)CC1
IC50 (GTPase KRas): 496 nM
logD [1]: 3.5
hepatocyte intrinsic clearance [2]: 56 µL/min
microsomal CLint [3]: 38 µL/min/mg

Structure (SMILES): C=CC(=O)N1CCN2c3c(cnc4cc(-c5c(C)ccc6[nH]ncc56)c(Cl)cc34)OCC[C@@H]2C1
IC50 (GTPase KRas): 4340 nM
hepatocyte intrinsic clearance [2]: 104 µL/min
microsomal CLint [3]: 81 µL/min/mg

Structure (SMILES): C=CC(=O)N1CCN2c3c(cnc4cc(-c5c(C)ccc6[nH]ncc56)c(Cl)cc34)OC[C@H]2C1 (single isomer, unassigned; atropisomer 1)
logD [1]: 4.2
hepatocyte intrinsic clearance [2]: 174 µL/min
Intrinsic clearance in human liver microsomes ([3]; microsomes): 165 µL/min/mg

Structure (SMILES): C=CC(=O)N1CCN2c3c(cnc4cc(-c5c(C)ccc6[nH]ncc56)c(Cl)cc34)OCC[C@H]2C1
IC50 (GTPase KRas): 627 nM
hepatocyte intrinsic clearance [2]: 102 µL/min
microsomal CLint [3]: > 300 µL/min/mg

Structure (SMILES): C=CC(=O)N1C[C@@H]2COc3cnc4cc(-c5c(O)cccc5F)c(Cl)cc4c3N2C[C@H]1C
IC50 (GTPase KRas): 52 nM
logD [1]: 3.8
hepatocyte intrinsic clearance [2]: 42 µL/min
microsomal CLint [3]: 32 µL/min/mg
efflux ratio at 10 µM [4]: 0.7
half-life [5]: 5.42 h
clearance [6]: 7 mL/min/kg
Vd [7]: 0.6 L/kg
bioavailability (in vivo): 96%

Now from value to compound, other results behind:

logD [1]: 2.9
hepatocyte intrinsic clearance [2]: 10 µL/min
microsomal CLint [3]: 21 µL/min/mg
efflux ratio at 10 µM [4]: 1.5
half-life [5]: 15.5 h
clearance [6]: 6 mL/min/kg
Vd [7]: 0.8 L/kg
bioavailability (in vivo): 56%
Structure (SMILES): C=CC(=O)N1CCN2c3c(cnc4c(F)c(-c5c(O)cccc5F)c(Cl)cc34)N(C)C(=O)[C@H]2C1

IC50 (GTPase KRas): < 5 nM
logD [1]: 3.4
hepatocyte intrinsic clearance [2]: 11 µL/min
microsomal CLint [3]: 21 µL/min/mg
efflux ratio at 10 µM [4]: 1.1
half-life [5]: 5.57 h
clearance [6]: 4 mL/min/kg
Vd [7]: 1 L/kg
fold change (FC) [9]: > 2
inhibition [13]: 82%
inhibition [14]: 79%
inhibition [15]: 75%
inhibition [16]: 80%
inhibition [17]: 73%
inhibition [18]: 89%
inhibition [19]: 84%
inhibition [20]: 74%
inhibition [21]: 86%
inhibition [22]: 100%
inhibition [23]: 70%
inhibition [24]: inactive
inhibition [25]: inactive
inhibition [26]: inactive
bioavailability (in vivo): 94%
Structure (SMILES): C=CC(=O)N1C[C@@H]2C(=O)N(C)c3cnc4c(F)c(-c5c(O)cccc5F)c(Cl)cc4c3N2C[C@H]1C
growth inhibition (GI) (Lu-99 cell line [8]): inactive
inhibition (Mus musculus): Active
growth inhibition (GI) (Lu-99 cell line [10]): inactive
growth inhibition (GI) (SW1573 [11]): inactive
growth inhibition (GI) (SW1573 [12]): inactive
Activity (MIA PaCa-2): Dose-dependent effect

logD [1]: 3.8
hepatocyte intrinsic clearance [2]: 40 µL/min
microsomal CLint [3]: 28 µL/min/mg
Structure (SMILES): C=CC(=O)N1CCN2c3c(cnc4c(C)c(-c5c(O)cccc5F)c(Cl)cc34)OC[C@H]2C1 (single isomer, unassigned; atropisomer)

logD [1]: 4.1
hepatocyte intrinsic clearance [2]: 99 µL/min
microsomal CLint [3]: 26 µL/min/mg
efflux ratio at 10 µM [4]: 1.5
Structure (SMILES): C=CC(=O)N1CCN2c3c(cnc4cc(-c5c(O)cccc5F)c(Cl)cc34)N(C)C[C@H]2C1
